Reference: ChEMBL document CHEMBL1201862, “PubChem BioAssay data set” (2004)
The source made the active and inactive calls.

Assays:
Coagulation factor XII = molecular target: T1, Coagulation factor XII (Homo sapiens, UniProt P00748); assay: FXIIa inhibitor potency, concentration-response, biochemical (AID 716); type: functional
T1 sequence (P00748 whole entry): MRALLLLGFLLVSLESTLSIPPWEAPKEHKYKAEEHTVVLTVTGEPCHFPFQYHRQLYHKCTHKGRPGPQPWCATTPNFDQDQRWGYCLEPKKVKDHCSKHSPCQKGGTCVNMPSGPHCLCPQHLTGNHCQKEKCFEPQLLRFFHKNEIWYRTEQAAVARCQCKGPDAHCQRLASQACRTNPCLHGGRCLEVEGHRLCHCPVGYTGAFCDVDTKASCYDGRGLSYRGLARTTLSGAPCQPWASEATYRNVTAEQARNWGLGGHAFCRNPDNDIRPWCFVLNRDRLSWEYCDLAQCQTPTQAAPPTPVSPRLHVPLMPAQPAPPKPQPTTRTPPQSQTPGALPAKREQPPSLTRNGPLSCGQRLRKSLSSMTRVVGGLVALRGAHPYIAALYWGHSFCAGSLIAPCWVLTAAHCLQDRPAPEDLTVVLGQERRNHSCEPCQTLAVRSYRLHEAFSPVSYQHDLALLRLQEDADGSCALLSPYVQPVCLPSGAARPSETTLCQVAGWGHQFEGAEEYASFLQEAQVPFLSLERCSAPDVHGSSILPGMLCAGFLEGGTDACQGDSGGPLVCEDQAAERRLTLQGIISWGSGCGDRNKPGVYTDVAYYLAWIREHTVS

[1] = molecular target: Potassium voltage-gated channel subfamily KQT member 2 (Rattus norvegicus, UniProt O88943); assay: retigabine-insensitive KCNQ2 potentiators, concentration-response, dose response, cell-based, retigabine-insensitive compounds (AID 2654); type: functional
Potassium voltage-gated channel subfamily KQT member 2, sequence (O88943 whole entry): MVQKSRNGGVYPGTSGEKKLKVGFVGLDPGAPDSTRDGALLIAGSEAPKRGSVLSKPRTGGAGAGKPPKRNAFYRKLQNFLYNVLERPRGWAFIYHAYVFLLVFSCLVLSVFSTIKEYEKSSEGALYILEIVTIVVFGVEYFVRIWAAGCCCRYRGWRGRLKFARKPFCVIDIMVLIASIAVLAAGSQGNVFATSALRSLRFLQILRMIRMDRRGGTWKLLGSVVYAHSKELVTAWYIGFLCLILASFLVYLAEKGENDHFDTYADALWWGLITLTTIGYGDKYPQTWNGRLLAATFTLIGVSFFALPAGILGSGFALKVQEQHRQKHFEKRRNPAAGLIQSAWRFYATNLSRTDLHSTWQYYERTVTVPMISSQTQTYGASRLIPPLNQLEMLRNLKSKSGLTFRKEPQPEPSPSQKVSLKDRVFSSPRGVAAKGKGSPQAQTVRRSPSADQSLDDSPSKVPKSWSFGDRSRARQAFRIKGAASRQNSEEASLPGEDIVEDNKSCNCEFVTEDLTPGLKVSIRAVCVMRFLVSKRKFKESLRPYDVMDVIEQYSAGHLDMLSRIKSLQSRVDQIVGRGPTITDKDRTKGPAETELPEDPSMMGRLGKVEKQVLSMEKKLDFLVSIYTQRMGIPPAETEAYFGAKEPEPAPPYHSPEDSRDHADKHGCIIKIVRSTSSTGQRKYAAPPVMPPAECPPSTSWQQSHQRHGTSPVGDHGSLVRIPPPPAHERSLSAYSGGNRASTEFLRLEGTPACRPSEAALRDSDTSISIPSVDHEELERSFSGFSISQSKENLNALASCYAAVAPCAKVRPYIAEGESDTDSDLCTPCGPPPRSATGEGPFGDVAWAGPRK

Beta-galactosidase = Beta-galactosidase (Escherichia coli, UniProt Q8VNN2); assay: beta-galactosidase enzyme inhibitors and activators, dose response, artefact control for CCR6 antagonist project, biochemical, E. coli enzyme, set 3 (AID 504712); type: functional
[2] = molecular target: Alkaline phosphatase, placental type (Homo sapiens, UniProt P05187); assay: PLAP enzyme inhibitors, confirmation, biochemical, luminescence (AID 1512); type: functional
Alkaline phosphatase, placental type, sequence (P05187 whole entry): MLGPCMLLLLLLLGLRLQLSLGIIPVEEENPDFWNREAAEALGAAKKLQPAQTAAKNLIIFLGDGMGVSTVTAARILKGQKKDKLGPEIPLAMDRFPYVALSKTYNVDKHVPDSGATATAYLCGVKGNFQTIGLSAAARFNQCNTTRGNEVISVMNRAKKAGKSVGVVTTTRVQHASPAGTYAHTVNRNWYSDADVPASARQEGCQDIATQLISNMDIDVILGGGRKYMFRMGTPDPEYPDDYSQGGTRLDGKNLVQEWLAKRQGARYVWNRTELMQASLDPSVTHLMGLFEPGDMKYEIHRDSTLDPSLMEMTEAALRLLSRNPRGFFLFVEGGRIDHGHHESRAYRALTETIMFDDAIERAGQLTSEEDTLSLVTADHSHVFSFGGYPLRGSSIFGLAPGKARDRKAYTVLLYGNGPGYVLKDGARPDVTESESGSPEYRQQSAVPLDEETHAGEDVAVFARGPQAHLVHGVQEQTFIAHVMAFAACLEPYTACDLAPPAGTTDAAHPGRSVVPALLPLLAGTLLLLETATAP

[3] = molecular target: T2, Alkaline phosphatase, tissue-nonspecific isozyme (Homo sapiens, UniProt P05186); assay: human TNAP enzyme inhibitors, SAR follow-up, biochemical, luminescent, dose response (AID 1056)
T2 sequence (P05186 whole entry): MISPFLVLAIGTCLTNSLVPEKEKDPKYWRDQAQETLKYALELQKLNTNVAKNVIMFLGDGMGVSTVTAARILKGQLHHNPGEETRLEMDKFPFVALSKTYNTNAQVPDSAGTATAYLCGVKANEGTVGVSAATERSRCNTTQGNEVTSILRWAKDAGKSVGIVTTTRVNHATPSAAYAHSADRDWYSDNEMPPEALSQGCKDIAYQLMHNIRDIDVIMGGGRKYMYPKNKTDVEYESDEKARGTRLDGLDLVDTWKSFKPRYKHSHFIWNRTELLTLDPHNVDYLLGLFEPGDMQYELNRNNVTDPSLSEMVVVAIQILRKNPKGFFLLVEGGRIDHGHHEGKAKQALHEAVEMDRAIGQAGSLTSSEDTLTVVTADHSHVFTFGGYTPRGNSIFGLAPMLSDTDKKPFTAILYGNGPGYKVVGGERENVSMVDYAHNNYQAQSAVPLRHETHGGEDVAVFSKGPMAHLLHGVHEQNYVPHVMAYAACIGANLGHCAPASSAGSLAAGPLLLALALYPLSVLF

[4] = molecular target: T3, Intestinal-type alkaline phosphatase (Homo sapiens, UniProt P09923); assay: Dose Response confirmation of uHTS hits from a small molecule inhibitors of human intestinal alkaline phosphatase via a luminescent assay. [Related pubchem assays (depositor defined):AID2544, AID2574]; type: functional
T3 sequence (P09923 whole entry): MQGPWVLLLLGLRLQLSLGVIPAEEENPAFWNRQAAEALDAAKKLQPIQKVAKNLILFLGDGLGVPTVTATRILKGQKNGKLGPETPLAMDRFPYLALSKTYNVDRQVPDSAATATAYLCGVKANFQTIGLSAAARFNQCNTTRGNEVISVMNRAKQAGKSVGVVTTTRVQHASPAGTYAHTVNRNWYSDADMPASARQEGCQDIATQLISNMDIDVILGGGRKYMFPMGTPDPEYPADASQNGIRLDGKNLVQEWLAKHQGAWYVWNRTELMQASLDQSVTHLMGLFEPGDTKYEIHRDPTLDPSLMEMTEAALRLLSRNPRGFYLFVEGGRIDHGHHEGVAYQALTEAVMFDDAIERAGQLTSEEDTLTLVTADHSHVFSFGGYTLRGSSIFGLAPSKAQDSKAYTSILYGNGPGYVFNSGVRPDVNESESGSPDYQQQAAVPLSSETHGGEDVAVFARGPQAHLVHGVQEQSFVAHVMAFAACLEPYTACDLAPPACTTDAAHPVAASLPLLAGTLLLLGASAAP

Caspase-7 = Caspase-7 (Homo sapiens, UniProt P55210); assay: procaspase-7 activators, dose response, counter-screen for procaspase-3 activator project, biochemical, absorbance (AID 489013)
Caspase-7, sequence (P55210 24-198 limits assumed): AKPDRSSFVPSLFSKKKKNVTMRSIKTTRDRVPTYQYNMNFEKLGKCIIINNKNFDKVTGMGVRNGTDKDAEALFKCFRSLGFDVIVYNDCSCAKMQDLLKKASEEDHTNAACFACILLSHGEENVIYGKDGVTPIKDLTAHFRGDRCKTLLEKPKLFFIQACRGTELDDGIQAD
Caspase-7, sequence (P55210 207-303 limits assumed): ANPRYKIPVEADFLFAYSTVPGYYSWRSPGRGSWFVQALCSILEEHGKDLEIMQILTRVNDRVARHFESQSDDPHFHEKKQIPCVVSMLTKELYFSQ

Caspase-3 = molecular target: T4, Caspase-3 (Homo sapiens, UniProt P42574); assay: procaspase-3 activators, dose response, biochemical, absorbance (AID 489014)
T4 sequence (P42574 whole entry): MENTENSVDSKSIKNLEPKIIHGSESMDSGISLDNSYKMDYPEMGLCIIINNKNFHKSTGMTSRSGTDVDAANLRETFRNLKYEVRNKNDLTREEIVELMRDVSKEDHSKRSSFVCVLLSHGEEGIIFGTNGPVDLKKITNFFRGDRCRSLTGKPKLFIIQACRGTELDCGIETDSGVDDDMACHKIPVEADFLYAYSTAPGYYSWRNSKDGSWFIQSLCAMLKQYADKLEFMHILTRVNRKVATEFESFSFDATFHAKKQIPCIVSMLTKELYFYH

[5] = molecular target: Glucose-6-phosphate 1-dehydrogenase (Homo sapiens, UniProt P11413); assay: human G6PD enzyme inhibitors, dose response, selectivity assay for P. falciparum G6PD inhibitor project, biochemical, fluorescence (AID 504792); type: functional
Glucose-6-phosphate 1-dehydrogenase, sequence (P11413 whole entry): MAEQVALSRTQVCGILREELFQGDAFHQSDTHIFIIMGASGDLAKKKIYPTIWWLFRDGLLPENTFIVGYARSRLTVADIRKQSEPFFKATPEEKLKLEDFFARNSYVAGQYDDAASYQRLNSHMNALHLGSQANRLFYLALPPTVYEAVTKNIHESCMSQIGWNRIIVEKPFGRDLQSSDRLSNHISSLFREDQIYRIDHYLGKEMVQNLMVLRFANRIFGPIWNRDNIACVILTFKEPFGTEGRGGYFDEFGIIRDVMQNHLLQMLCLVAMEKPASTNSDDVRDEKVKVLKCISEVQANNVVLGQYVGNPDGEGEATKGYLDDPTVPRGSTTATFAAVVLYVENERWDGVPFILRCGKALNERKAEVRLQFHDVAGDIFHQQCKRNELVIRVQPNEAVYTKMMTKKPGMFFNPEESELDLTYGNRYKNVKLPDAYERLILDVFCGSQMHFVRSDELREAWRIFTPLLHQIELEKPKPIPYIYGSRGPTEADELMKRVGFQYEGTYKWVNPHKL

[6] = molecular target: DNA dC->dU-editing enzyme APOBEC-3A (Homo sapiens, UniProt P31941); assay: APOBEC3A DNA deaminase inhibitors, dose response, biochemical (AID 504722); type: functional
DNA dC->dU-editing enzyme APOBEC-3A, sequence (P31941 whole entry): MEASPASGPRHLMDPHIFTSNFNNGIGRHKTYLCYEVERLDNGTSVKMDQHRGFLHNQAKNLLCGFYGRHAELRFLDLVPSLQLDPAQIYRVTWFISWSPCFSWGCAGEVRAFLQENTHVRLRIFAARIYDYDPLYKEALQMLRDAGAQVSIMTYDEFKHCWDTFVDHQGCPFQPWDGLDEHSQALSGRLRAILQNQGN

Phosphomannomutase 2 = Phosphomannomutase 2 (Homo sapiens, UniProt O15305); assay: Counter screen SAR assay for PMM2 inhibitors via a fluorescence intensity assay. [Related pubchem assays (depositor defined):AID1545, AID1574]
Phosphomannomutase 2, sequence (O15305 whole entry): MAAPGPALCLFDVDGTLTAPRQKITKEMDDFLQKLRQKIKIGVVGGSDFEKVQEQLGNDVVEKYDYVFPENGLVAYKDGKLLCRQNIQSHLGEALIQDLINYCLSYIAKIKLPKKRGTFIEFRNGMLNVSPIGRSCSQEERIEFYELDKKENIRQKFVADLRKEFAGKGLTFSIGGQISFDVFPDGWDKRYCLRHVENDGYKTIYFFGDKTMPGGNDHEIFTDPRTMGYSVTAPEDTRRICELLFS

[7] = molecular target: DNA dC->dU-editing enzyme APOBEC-3G (Homo sapiens, UniProt Q9HC16); assay: Dose Response confirmation of small molecule APOBEC3G DNA Deaminase Inhibitors via a fluorescence-based single-stranded DNA deaminase assay. [Related pubchem assays (depositor defined):AID493012, AID493028]; type: functional
DNA dC->dU-editing enzyme APOBEC-3G, sequence (Q9HC16 whole entry): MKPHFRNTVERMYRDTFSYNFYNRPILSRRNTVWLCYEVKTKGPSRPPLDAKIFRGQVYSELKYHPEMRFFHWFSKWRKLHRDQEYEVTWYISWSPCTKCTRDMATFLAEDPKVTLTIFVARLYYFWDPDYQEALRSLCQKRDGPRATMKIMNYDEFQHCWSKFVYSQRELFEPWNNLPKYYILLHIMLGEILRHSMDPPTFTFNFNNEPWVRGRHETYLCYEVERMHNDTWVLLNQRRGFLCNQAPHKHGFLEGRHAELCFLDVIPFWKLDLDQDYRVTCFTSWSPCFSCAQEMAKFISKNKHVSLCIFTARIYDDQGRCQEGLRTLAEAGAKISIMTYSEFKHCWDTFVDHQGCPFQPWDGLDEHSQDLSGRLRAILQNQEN

[8] = molecular target: Phosphoethanolamine/phosphocholine phosphatase (Homo sapiens, UniProt Q8TCT1); assay: SAR assay for compounds that inhibit PHOSPHO1. [Related pubchem assays (depositor defined):AID1545, AID1565, AID1574]
Phosphoethanolamine/phosphocholine phosphatase, sequence (Q8TCT1 whole entry): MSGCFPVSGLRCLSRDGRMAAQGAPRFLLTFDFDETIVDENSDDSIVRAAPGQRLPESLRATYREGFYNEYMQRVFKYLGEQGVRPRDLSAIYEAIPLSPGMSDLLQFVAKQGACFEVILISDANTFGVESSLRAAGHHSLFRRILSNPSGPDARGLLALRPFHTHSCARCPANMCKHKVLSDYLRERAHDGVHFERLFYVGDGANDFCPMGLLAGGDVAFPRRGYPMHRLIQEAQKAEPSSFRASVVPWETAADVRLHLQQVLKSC

[9] = molecular target: T2, Alkaline phosphatase, tissue-nonspecific isozyme; assay: TNAP enzyme inhibition by screening hits, dose response, selectivity assay for mouse IAP inhibitor project, biochemical, human TNAP, uHTS hits (AID 488906); type: functional
[10] = molecular target: 1-phosphatidylinositol 4,5-bisphosphate phosphodiesterase beta-3 (Homo sapiens, UniProt Q01970); assay: Fluorescence-based biochemical high throughput dose response assay to identify inhibitors of phospholipase C isozymes (PLC-B3).
[11] = molecular target: 1-phosphatidylinositol 4,5-bisphosphate phosphodiesterase gamma-1 (Homo sapiens, UniProt P19174); assay: Counterscreen for inhibitors of phospholipase C isozymes (PLC-B3): Fluorescence-based biochemical high throughput dose response assay to identify inhibitors of phospholipase C isozymes (PLC-gamma1).
ORF 73 = ORF 73 (Human herpesvirus 8, UniProt O40947); assay: inhibitors of C-LANA binding to LBS DNA, dose response, biochemical, fluorescence polarization, cherry-picked samples (AID 504725); parameters: species or system Human gammaherpesvirus 8;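 further: fluorescence polarization of a labeled DNA duplex reporting LANA DNA binding; potency is for inhibitors that block LANA binding to the DNA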
ORF 73, sequence (O40947 whole entry): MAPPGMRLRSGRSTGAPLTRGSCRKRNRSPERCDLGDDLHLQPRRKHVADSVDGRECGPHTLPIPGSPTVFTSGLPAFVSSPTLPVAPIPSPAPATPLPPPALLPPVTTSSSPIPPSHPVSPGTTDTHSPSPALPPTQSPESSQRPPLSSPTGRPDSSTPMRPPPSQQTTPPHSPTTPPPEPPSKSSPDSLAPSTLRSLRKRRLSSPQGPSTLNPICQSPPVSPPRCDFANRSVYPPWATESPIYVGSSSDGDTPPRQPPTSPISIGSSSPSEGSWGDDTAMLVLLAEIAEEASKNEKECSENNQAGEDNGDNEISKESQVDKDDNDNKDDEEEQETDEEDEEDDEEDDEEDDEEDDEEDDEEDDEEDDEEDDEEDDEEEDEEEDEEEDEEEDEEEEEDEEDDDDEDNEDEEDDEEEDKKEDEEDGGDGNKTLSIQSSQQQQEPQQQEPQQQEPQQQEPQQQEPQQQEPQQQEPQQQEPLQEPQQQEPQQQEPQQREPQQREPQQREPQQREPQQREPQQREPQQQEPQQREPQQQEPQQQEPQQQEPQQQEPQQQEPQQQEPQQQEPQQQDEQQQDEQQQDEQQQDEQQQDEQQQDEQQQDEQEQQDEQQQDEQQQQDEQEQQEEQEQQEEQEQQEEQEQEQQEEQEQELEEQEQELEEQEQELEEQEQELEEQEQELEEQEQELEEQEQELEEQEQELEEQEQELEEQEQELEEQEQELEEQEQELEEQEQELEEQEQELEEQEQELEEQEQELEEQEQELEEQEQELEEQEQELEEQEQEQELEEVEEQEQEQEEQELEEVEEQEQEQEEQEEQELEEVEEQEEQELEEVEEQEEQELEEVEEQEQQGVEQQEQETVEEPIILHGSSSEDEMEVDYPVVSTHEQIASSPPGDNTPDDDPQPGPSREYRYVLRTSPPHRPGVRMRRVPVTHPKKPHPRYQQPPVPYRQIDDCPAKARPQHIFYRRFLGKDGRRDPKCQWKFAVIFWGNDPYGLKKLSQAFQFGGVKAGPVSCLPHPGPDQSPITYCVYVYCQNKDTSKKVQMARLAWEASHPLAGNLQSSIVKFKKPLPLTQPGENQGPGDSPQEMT

[12] = molecular target: T5, Histone-lysine N-methyltransferase NSD2 (Homo sapiens, UniProt O96028); type: biochemical
T5 sequence (O96028 whole entry): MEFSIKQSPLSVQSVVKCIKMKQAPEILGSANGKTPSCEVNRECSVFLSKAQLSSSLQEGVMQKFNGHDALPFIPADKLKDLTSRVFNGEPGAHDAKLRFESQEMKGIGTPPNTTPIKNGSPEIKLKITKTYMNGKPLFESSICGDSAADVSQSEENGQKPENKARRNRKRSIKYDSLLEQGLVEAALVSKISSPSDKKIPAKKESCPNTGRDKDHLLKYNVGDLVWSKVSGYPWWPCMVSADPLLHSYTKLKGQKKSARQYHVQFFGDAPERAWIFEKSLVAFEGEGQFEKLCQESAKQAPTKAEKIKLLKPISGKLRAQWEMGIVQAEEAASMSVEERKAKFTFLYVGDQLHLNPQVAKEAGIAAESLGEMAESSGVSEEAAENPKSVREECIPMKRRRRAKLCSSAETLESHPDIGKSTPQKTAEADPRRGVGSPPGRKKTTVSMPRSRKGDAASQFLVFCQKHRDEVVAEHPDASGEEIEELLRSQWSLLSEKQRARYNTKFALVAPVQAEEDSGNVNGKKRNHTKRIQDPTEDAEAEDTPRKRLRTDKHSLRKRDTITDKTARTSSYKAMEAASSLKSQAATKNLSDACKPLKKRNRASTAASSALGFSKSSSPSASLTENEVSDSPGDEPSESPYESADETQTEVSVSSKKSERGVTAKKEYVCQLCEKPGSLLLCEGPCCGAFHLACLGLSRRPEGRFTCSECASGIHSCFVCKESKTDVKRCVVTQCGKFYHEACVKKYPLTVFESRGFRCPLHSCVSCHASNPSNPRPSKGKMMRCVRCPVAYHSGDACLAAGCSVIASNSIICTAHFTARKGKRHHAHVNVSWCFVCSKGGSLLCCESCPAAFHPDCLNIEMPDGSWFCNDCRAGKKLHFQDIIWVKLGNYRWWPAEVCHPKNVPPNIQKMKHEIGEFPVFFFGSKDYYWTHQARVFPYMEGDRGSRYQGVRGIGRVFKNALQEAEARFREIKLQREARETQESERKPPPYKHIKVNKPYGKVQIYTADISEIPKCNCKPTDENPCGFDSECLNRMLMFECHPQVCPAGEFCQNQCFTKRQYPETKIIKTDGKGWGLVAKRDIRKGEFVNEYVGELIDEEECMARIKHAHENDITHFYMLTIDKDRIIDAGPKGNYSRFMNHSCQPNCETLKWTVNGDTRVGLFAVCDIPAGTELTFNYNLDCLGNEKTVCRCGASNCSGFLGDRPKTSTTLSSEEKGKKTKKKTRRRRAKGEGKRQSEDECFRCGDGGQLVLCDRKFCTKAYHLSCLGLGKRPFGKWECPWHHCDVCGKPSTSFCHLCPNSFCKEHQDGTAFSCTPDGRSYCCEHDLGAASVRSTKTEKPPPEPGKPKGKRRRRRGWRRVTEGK

[13] = molecular target: T3, Intestinal-type alkaline phosphatase; assay: inhibition of human intestinal alkaline phosphatase – biochemical, dose response (AID 488876); type: functional
[14] = molecular target: Intestinal-type alkaline phosphatase (Mus musculus, UniProt P24822); assay: PubChem AID 488785; type: functional
[15] = molecular target: T6, Short transient receptor potential channel 4 (Mus musculus, UniProt Q9QUQ5); assay: TRPC4 positive allosteric modulators, dose response, cell-based, HEK293 TRPC4/mu-opioid, Fluo-4 calcium, EC20 DAMGO (AID 434941); type: functional
T6 sequence (Q9QUQ5 whole entry): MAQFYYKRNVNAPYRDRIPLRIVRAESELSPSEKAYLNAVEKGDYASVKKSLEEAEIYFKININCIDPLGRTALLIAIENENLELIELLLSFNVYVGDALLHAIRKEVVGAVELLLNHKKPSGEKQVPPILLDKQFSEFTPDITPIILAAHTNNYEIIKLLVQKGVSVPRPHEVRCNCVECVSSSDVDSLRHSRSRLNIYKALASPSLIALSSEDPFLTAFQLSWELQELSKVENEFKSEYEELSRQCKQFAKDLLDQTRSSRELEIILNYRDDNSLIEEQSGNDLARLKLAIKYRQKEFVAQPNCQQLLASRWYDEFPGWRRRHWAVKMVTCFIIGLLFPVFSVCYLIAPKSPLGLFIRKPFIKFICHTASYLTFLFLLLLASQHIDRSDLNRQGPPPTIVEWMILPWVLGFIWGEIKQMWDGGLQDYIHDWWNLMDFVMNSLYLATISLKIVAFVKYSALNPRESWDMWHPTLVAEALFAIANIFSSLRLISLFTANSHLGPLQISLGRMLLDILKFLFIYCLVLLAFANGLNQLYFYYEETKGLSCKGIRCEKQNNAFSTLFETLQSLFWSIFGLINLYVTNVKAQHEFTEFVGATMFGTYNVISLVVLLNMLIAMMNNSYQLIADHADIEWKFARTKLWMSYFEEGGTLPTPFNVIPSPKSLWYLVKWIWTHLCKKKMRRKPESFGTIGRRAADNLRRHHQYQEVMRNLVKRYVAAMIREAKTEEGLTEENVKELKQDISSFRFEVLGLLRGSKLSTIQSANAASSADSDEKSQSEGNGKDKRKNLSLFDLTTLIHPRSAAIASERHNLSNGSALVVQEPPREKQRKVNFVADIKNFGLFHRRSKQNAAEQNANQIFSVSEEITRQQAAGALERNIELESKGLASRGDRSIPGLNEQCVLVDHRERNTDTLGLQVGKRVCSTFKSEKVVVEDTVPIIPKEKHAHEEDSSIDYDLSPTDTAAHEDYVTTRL

CCOC(=O)CSc1nnc(CNC(=O)Cc2ccccc2)n1C
IC50 (Coagulation factor XII): > 50 µM (inactive)

Cc1cc(C)cc(NC(=O)Nc2cccnc2)c1
EC50 [1]: 10.7 µM (active)

CCCOc1cccc(C(=O)NC(=S)Nc2cccc(C(F)(F)F)c2)c1
IC50 (Beta-galactosidase): > 66.6 µM (inactive)

Cc1cc2nc(C3CCN(Cc4nnnn4Cc4cccs4)CC3)[nH]c2cc1C
IC50 [2]: 2.73 µM (active) | IC50 [3]: 5.64 µM (active) | IC50 [4]: > 100 µM (inactive)

CC1(C)CC(=O)C2=C(C1)c1c(ccc3ccccc13)NC2c1ccc(Br)o1 (configuration not stated)
EC50 (Caspase-7): > 85.2 µM (inactive) | EC50 (Caspase-3): > 85.2 µM (inactive)

O=c1c2cc(F)ccc2sn1-c1ccc(F)cc1
IC50 [5]: 16.7 µM (active) | IC50 [3]: > 100 µM (inactive) | IC50 [6]: > 100 µM (inactive) | IC50 (Phosphomannomutase 2): 86.9 µM (active) | IC50 [7]: 15.5 µM (active) | IC50 [8]: > 10 µM (inactive)

O=C(CCCN1C(=O)/C(=C\c2ccco2)SC1=S)Nc1ccc(O)cc1C(=O)O
IC50 [9]: > 100 µM (inactive) | IC50 [10]: > 122 µM (inactive) | IC50 [11]: > 122 µM (inactive) | AC50 (ORF 73): 47.2 µM (active) | AC50 [12]: 16.1 µM (active) | IC50 [13]: > 100 µM (inactive) | IC50 [14]: 6.43 µM (active)

COc1ccc(/N=C(\C)C2=C(O)C(=O)N(CCO)C2c2ccc([N+](=O)[O-])cc2)cc1 (configuration not stated)
EC50 [15]: 0.47 µM (active)
